Assay results: publication PMC11845477, “Exploring the principles behind antibiotics with limited resistance” (Nature Communications, 2025)

Tests used:
[1] = tested on: K. pneumoniae ATCC 10031 (SEN) and K. pneumoniae ATCC 700603 (MDR); assay: microbe, parasite or virus in culture; format: cell-based, Klebsiella pneumoniae; details: for MIC: across three biological replicates
In short: (§1)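 Cation-adj. MHB2 (not for SCH79797); 11–16-step dilution series; 5 × 10^5 cells/mL; 37 °C, shaking, 18 h; duplicates. Growth by OD600; MIC at OD600 < 0.05. Relative MIC: evolved vs ancestor.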

[2] = tested on: P. aeruginosa ATCC BAA-3107 (SEN) and P. aeruginosa LESB58 (MDR); assay: microbe, parasite or virus in culture; format: cell-based, Pseudomonas aeruginosa; details: across three biological replicates
In short: as §1

[3] = tested on: K. pneumoniae ATCC 10031 (SEN) and K. pneumoniae ATCC 700603 (MDR); assay: Adaptive laboratory evolution (ALE), relative MIC of evolved lines; format: cell-based, Klebsiella pneumoniae; details: for Relative MIC: ALE; for MIC of evolved line: KP-SEN (K. pneumoniae ATCC 10031)
In short: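 Ten parallel populations per antibiotic–ancestor pair were evolved in MHB at 37 °C, starting near 50% growth-inhibiting drug. Every 72 h they were passaged into 0.5–2.5× increasing concentrations, keeping the highest-drug well with OD600 > 0.2.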

[4] = Klebsiella pneumoniae ATCC 10031 (KP-SEN)
[5] = Klebsiella pneumoniae ATCC 700603 (KP-MDR)
[6] = Pseudomonas aeruginosa ATCC BAA-3107 (PA-SEN)
[7] = Pseudomonas aeruginosa LESB 58 (PA-MDR)

## POL7306
[1]; [4]
  MIC: 1 µg/mL
[1]; [5]
  MIC: 1 µg/mL
[2]; [6]
  MIC: 2 µg/mL
[2]; [7]
  MIC: 8 µg/mL
[3]; Klebsiella pneumoniae ATCC 10031 (KP-SEN), evolved line 1
  Relative MIC: 1
[3]; Klebsiella pneumoniae ATCC 10031 (KP-SEN), evolved line 4
  Relative MIC: 32
[3]; Klebsiella pneumoniae ATCC 10031 (KP-SEN), evolved line 7
  Relative MIC: 1
[3]; Klebsiella pneumoniae ATCC 10031 (KP-SEN), evolved line 8
  Relative MIC: 32
[3]; Klebsiella pneumoniae ATCC 10031 (KP-SEN), evolved line 10
  Relative MIC: 64
[3]; Klebsiella pneumoniae ATCC 700603 (KP-MDR), evolved line 1
  Relative MIC: 16
[3]; Klebsiella pneumoniae ATCC 700603 (KP-MDR), evolved line 2
  Relative MIC: 256
[3]; Klebsiella pneumoniae ATCC 700603 (KP-MDR), evolved line 3
  Relative MIC: 256
[3]; Klebsiella pneumoniae ATCC 700603 (KP-MDR), evolved line 4
  Relative MIC: 256
[3]; Klebsiella pneumoniae ATCC 700603 (KP-MDR), evolved line 5
  Relative MIC: 256
[3]; Klebsiella pneumoniae ATCC 700603 (KP-MDR), evolved line 6
  Relative MIC: 256
[3]; Klebsiella pneumoniae ATCC 700603 (KP-MDR), evolved line 8
  Relative MIC: 256
[3]; Klebsiella pneumoniae ATCC 700603 (KP-MDR), evolved line 10
  Relative MIC: 16

## Tridecaptin M152-P3
[1]; Klebsiella pneumoniae ATCC 10031 (KP-SEN), ancestor strain, sheet fig 2a
  MIC of ancestor: 4 µg/mL
[1]; [4]
  MIC: 4 µg/mL
[1]; [5]
  MIC: 8 µg/mL
[1]; ancestor KP-SEN (Klebsiella pneumoniae ATCC 10031)
  MIC of ancestor: 4 µg/mL
[2]; [6]
  MIC: 32 µg/mL
[2]; [7]
  MIC: >32 µg/mL
[3]; evolved line 2 of the given antibiotic
  MIC of evolved line: 32 µg/mL
[3]; evolved line 4 of the given antibiotic
  MIC of evolved line: 8 µg/mL
[3]; evolved line 5 of the given antibiotic
  MIC of evolved line: 64 µg/mL
[3]; evolved line 6 of the given antibiotic
  MIC of evolved line: 64 µg/mL
[3]; evolved line 7 of the given antibiotic
  MIC of evolved line: 64 µg/mL
[3]; evolved line 8 of the given antibiotic
  MIC of evolved line: 4 µg/mL
